Tests used:
Test in all cases: relative viability (nuclei count vs DMSO), 5 days (fraction); higher = more cells survive
[1] = compound: Cc1ccc(NC(=O)c2ccc(CN3CCN(C)CC3)cc2)cc1Nc1nccc(-c2cccnc2)n1 [Imatinib] + CC(=O)Nc1cccc(-n2c(=O)n(C3CC3)c(=O)c3c(Nc4ccc(I)cc4F)n(C)c(=O)c(C)c32)c1 [Trametinib] (partner 0.02 µM)
Procedure, shortened: (§1)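 A single step with final 0.05% Triton X-100, 1% formaldehyde and 1 ug/ml Hoechst fixed the cells and stained nuclei 5 days after treatment. Lung cancer cell lines in 1536-well plates had been treated by pin tool the day after seeding with one drug alone or a fixed anchor-drug dose plus five library-drug doses (not always all listed) in √10 steps, and nuclei were counted on 4× images. Relative viability is the ratio of nuclei in treated wells to nuclei in vehicle wells, taken as the median of duplicate plates.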

[2] = compound: Cc1ccc(NC(=O)c2ccc(CN3CCN(C)CC3)cc2)cc1Nc1nccc(-c2cccnc2)n1 [Imatinib] + COc1cc2c(Oc3ccc(NC(=O)C4(C(=O)Nc5ccc(F)cc5)CC4)cc3F)ccnc2cc1OCCCN1CCOCC1 [Foretinib] (partner 0.25 µM)
Procedure, shortened: as §1

[3] = compound: Cc1ccc(NC(=O)c2ccc(CN3CCN(C)CC3)cc2)cc1Nc1nccc(-c2cccnc2)n1 [Imatinib] + N=C(N)NC(=N)NCCc1ccccc1 [Phenformin] (partner 250 µM)
Procedure, shortened: as §1

[4] = compound: Cc1ccc(NC(=O)c2ccc(CN3CCN(C)CC3)cc2)cc1Nc1nccc(-c2cccnc2)n1 [Imatinib] + O=C(CCCCCCC(=O)Nc1ccccc1)NO [Vorinostat] (partner 1 µM)
Procedure, shortened: as §1

Cell Line | relative viability ([1]; first compound 0.02 µM) | relative viability ([1]; first compound 0.06325 µM) | relative viability ([1]; first compound 0.2 µM) | relative viability ([1]; first compound 0.6325 µM) | relative viability ([1]; first compound 2 µM) | relative viability ([2]; first compound 0.02 µM) | relative viability ([2]; first compound 0.2 µM) | relative viability ([2]; first compound 0.6325 µM) | relative viability ([2]; first compound 2 µM) | relative viability ([3]; first compound 0.02 µM) | relative viability ([3]; first compound 0.2 µM) | relative viability ([3]; first compound 0.6325 µM) | relative viability ([3]; first compound 2 µM) | relative viability ([4]; first compound 0.02 µM) | relative viability ([4]; first compound 0.06325 µM) | relative viability ([4]; first compound 0.6325 µM) | relative viability ([4]; first compound 2 µM) | relative viability ([4]; first compound 0.2 µM) | relative viability ([2]; first compound 0.06325 µM) | relative viability ([3]; first compound 0.06325 µM)
201T | 0.694 | 0.697 | 0.738 | 0.681 | 0.7 | 1.21 | 1.06 | 1.04 | 1.12 | 0.433 | 0.469 | 0.435 | 0.437 | 0.996 | 0.405 | 0.954 | 0.984 |  |  | 
A-427 | 0.745 | 0.786 | 0.757 | 0.76 | 0.712 | 1.13 | 1 | 0.946 | 1.01 | 0.327 | 0.316 | 0.27 | 0.237 |  |  |  |  |  |  | 
ABC-1 |  |  |  |  |  | 0.739 | 0.904 | 1.13 | 0.922 | 0.252 | 0.224 | 0.305 | 0.187 | 1.21 |  | 1.02 | 1.24 | 1.37 |  | 
BEN | 1.09 | 1.02 | 1.05 | 1.1 | 1.1 | 0.774 | 0.564 | 0.701 | 0.602 | 0.257 | 0.258 | 0.287 | 0.243 | 0.526 | 0.654 | 0.547 | 0.556 | 0.634 |  | 
CAL-12T | 0.336 | 0.324 | 0.321 | 0.411 | 0.398 | 1.09 | 1.1 | 1.16 | 1.16 | 0.558 | 0.674 | 0.618 | 0.555 | 0.854 | 0.69 | 0.78 | 0.711 | 0.828 |  | 
COR-L23 | 0.636 | 0.494 | 0.72 | 0.697 | 0.648 |  | 1.01 | 0.984 | 1.01 | 0.469 | 0.496 | 0.419 | 0.422 | 0.523 | 0.519 | 0.399 | 0.41 | 0.424 | 1 | 0.541
COR-L 105 | 0.44 | 0.495 | 0.452 | 0.433 | 0.419 | 1.2 |  | 0.948 | 1.08 | 0.51 | 0.453 | 0.497 | 0.373 | 1.12 | 0.858 | 0.701 | 0.841 | 0.825 | 1.23 | 0.632
Calu-6 |  |  |  |  |  | 1.08 | 1.01 | 0.925 | 0.891 |  |  |  |  |  |  |  |  |  | 1.01 | 
ChaGo-K-1 | 0.927 |  | 0.833 | 0.81 | 0.871 | 0.921 | 0.916 | 0.916 | 0.958 | 0.425 | 0.505 | 0.426 | 0.432 | 0.804 |  | 0.761 | 0.697 | 0.79 | 0.936 | 0.485
EKVX | 0.376 |  | 0.295 | 0.325 |  |  | 0.68 | 0.736 | 0.988 |  | 0.22 | 0.226 | 0.242 | 0.665 |  | 0.881 | 0.699 | 0.753 | 0.585 | 0.249
EMC-BAC-2 | 0.887 | 1 | 0.904 | 1.07 | 0.853 | 1.05 | 1.09 | 0.973 | 1.02 | 0.572 | 0.555 | 0.467 | 0.46 | 0.514 | 0.497 | 0.522 | 0.514 | 0.492 | 1.12 | 0.632
EPLC-272H | 0.256 |  |  | 0.295 | 0.268 | 0.938 | 0.819 | 0.558 | 0.59 | 0.308 | 0.273 | 0.322 | 0.442 | 0.351 |  | 0.309 | 0.422 |  |  | 
H3255 | 0.589 |  | 0.635 | 0.616 | 0.609 | 0.791 |  | 0.914 | 0.709 | 0.326 | 0.378 | 0.335 | 0.376 | 0.873 |  |  | 0.588 | 0.765 | 0.405 | 0.377
HARA | 0.583 | 0.574 | 0.633 | 0.467 | 0.727 | 0.836 | 0.976 | 0.886 | 0.971 | 0.57 | 0.439 | 0.39 | 0.387 | 0.615 |  | 0.546 | 0.653 | 0.595 |  | 
HCC-15 | 0.399 |  | 0.411 | 0.406 | 0.359 | 1.14 | 1.05 | 0.987 | 1.09 | 0.502 | 0.518 | 0.451 | 0.433 | 0.857 |  | 0.854 | 0.765 | 0.917 |  | 
HCC-44 | 1.1 |  | 1.24 | 0.94 | 1.11 |  |  |  |  | 0.252 | 0.222 | 0.196 | 0.192 | 1.12 |  | 1.14 | 1.04 | 1.14 |  | 0.22
HCC-78 | 0.837 | 0.613 | 0.9 | 0.755 | 0.881 | 0.654 | 0.534 | 0.44 | 0.56 | 0.695 | 0.719 | 0.591 | 0.641 | 0.417 | 0.344 | 0.447 | 0.492 | 0.383 | 0.577 | 0.674

Cell Line | relative viability ([1]; first compound 0.02 µM) | relative viability ([1]; first compound 0.06325 µM) | relative viability ([1]; first compound 0.2 µM) | relative viability ([1]; first compound 0.6325 µM) | relative viability ([1]; first compound 2 µM) | relative viability ([2]; first compound 0.02 µM) | relative viability ([2]; first compound 0.2 µM) | relative viability ([2]; first compound 0.6325 µM) | relative viability ([2]; first compound 2 µM) | relative viability ([3]; first compound 0.02 µM) | relative viability ([3]; first compound 0.2 µM) | relative viability ([3]; first compound 0.6325 µM) | relative viability ([3]; first compound 2 µM) | relative viability ([4]; first compound 0.02 µM) | relative viability ([4]; first compound 0.06325 µM) | relative viability ([4]; first compound 0.6325 µM) | relative viability ([4]; first compound 2 µM) | relative viability ([4]; first compound 0.2 µM) | relative viability ([2]; first compound 0.06325 µM) | relative viability ([3]; first compound 0.06325 µM)
HCC-366 | 0.423 | 0.346 | 0.45 | 0.321 | 0.432 | 0.998 | 0.942 | 0.982 | 1.01 | 0.64 | 0.637 | 0.631 | 0.579 | 0.421 | 0.307 | 0.369 | 0.368 | 0.467 |  | 
HCC-827 | 0.483 | 0.517 | 0.646 | 0.562 | 0.515 | 1.05 | 1.05 | 1.04 | 0.962 | 0.432 | 0.475 | 0.37 | 0.403 | 0.797 | 0.906 | 0.788 | 0.684 | 0.858 | 1.04 | 0.481
HOP-62 | 0.376 |  | 0.359 | 0.357 | 0.401 | 1.27 | 1.23 | 0.994 | 1.12 | 0.77 | 0.858 | 0.613 | 0.66 | 0.884 |  | 0.562 | 0.68 | 0.83 |  | 
IA-LM |  |  |  |  |  | 1.34 | 1.06 | 1.4 | 1.17 |  |  |  |  |  | 0.357 | 1.16 | 0.923 | 1.14 | 1.2 | 
LC-2-ad | 0.956 |  | 1.01 | 0.973 | 0.908 | 0.926 | 0.886 | 0.819 | 0.982 | 0.626 |  | 0.603 | 0.557 | 0.73 |  | 0.707 | 0.693 | 0.754 | 0.676 | 0.603
LCLC-97TM1 | 0.235 |  | 0.183 | 0.207 | 0.172 | 0.934 | 1.03 | 0.927 | 0.905 | 0.409 | 0.458 | 0.498 | 0.437 | 0.798 |  | 0.855 | 0.767 | 0.959 |  | 
LCLC-103H | 0.752 | 0.673 | 0.742 | 0.655 | 0.658 |  | 0.565 | 0.679 | 0.869 | 0.342 | 0.347 | 0.316 | 0.255 | 0.768 | 0.584 | 0.766 | 0.779 | 0.814 | 0.744 | 0.325
LK-2 | 0.783 | 0.61 | 0.919 |  | 0.87 | 1.18 | 1.65 | 0.83 | 1.32 | 0.447 | 0.378 | 0.439 | 0.46 | 0.323 | 0.246 |  | 0.159 | 0.286 | 0.908 | 0.413
LOU-NH91 | 0.801 | 0.782 | 0.819 | 0.83 | 0.754 | 0.943 | 0.891 | 0.929 | 0.879 | 0.679 | 0.675 | 0.679 | 0.665 | 0.948 | 1.08 | 0.885 | 0.895 | 0.938 | 0.923 | 0.693
LU99A | 0.53 | 0.638 | 0.517 | 0.556 | 0.318 | 0.772 | 0.894 | 0.857 | 0.772 | 0.887 | 0.77 | 0.899 | 0.785 | 0.564 | 0.455 | 0.559 | 0.564 | 0.471 | 0.879 | 0.923
LXF-289 | 0.662 |  | 0.755 | 0.636 | 0.679 | 1.01 | 1.14 | 0.848 | 0.95 | 0.531 | 0.552 | 0.51 | 0.502 | 0.782 |  | 0.736 | 0.783 | 0.798 | 0.914 | 0.491
NCI-H23 | 0.389 | 0.393 | 0.376 | 0.371 | 0.379 | 1.13 | 1.2 | 1.07 | 1.13 | 0.863 | 0.768 | 0.764 | 0.731 | 0.686 | 0.669 | 0.453 | 0.488 | 0.578 | 1.15 | 0.84
NCI-H1299 |  |  |  |  |  | 1.11 | 1.16 | 1.09 |  |  |  |  |  |  |  |  |  |  | 1.18 | 
NCI-H1563 |  |  |  |  |  | 0.924 | 0.902 | 0.845 | 0.925 | 0.634 | 0.658 | 0.607 | 0.625 |  |  |  |  |  |  | 0.648
NCI-H1648 | 0.422 | 0.364 | 0.459 | 0.301 | 0.478 |  |  |  |  |  |  |  |  | 0.503 | 0.272 | 0.268 | 0.476 | 0.422 |  | 
NCI-H1703 |  |  |  |  |  | 0.329 | 0.372 | 0.402 | 0.347 |  |  |  |  |  |  |  |  |  | 0.397 | 
NCI-H1792 | 0.534 | 0.311 | 0.521 |  | 0.427 |  |  |  |  | 0.262 | 0.233 | 0.235 | 0.35 |  |  |  |  |  |  | 0.237

Reference: the supplement of paper PMC10307832
